Measured values: ChEMBL document CHEMBL4665882, “Allosteric kidney-type glutaminase (GLS) inhibitors with a mercaptoethyl linker” (Bioorg Med Chem, 2020)

How the values were obtained:
[1] = molecular target: T1, Glutaminase kidney isoform, mitochondrial (Homo sapiens, UniProt O94925); experiment: Allosteric inhibition of human kidney glutaminase using [3H]-Glutamine as substrate in presence of inhibitor incubated for 45 mins by Perkin Elmer based assay
T1 sequence (O94925 whole entry): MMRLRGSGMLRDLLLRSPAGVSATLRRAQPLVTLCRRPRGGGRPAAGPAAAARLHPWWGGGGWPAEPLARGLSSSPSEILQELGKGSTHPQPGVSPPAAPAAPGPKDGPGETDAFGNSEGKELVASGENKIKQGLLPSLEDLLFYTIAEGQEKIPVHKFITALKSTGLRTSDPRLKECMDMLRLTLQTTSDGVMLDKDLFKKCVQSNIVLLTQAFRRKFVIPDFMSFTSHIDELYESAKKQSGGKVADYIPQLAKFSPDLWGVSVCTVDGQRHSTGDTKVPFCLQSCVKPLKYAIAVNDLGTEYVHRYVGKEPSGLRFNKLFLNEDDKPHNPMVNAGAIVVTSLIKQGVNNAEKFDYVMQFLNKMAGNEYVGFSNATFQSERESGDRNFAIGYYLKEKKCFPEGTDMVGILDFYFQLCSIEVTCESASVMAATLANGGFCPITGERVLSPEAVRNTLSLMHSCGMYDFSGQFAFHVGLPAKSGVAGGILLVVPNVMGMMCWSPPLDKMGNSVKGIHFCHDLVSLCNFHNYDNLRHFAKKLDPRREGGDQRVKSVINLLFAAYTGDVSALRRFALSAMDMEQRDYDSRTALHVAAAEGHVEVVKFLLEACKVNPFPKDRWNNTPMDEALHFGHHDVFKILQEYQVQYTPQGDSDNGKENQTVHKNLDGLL

[2] = Inhibition of human recombinant glutaminase assessed as reduction in glutamate production in presence of NADPH-dependent glutamate dehydrogenase preincubated 60 mins by coupled biochemical assay
[3] = Inhibition of glutaminase (unknown origin) preincubated for 60 mins; set-up: species or system Homo sapiens
[4] = Aqueous solubility of compound in PBS 7.4 at 5 mg/ml incubated for 24 hrs by LC-MS-based shake-flask method; format: physicochemical; conditions: buffer, pH 7.4, 24 h
[5] = Metabolic stability in mouse liver microsomes assessed as compound remaining after 60 mins incubation in presence of NADPH by LC-MS/MS analysis; format: ADME, Microsome; conditions: 1 h

SMILES	IC50 [1] [nM]	other results
O=C(Cc1cccc(OC(F)(F)F)c1)Nc1ccc(CCCCc2nnc(NC(=O)Cc3ccccn3)s2)nn1		IC50 [2]: < 50 nM
O=C(Cc1ccccc1)Nc1nnc([C@H]2CCC[C@H](c3nnc(NC(=O)Cc4ccccc4)s3)C2)s1		IC50 [3]: < 100 nM
O=C(Cc1ccccc1)Nc1nnc([C@H]2CCC[C@H](c3nnc(NC(=O)Cc4ccccc4)s3)C2)s1 (racemic)	280	
Nc1nnc(SCCc2nnc(NC(=O)Cc3ccccc3)s2)s1	3000	
Nc1nnc(SCCc2ccc(NC(=O)Cc3ccccc3)nn2)s1	6800	
O=C(Cc1ccccc1)Nc1ccc(CCSc2nnc(NC(=O)Cc3ccccc3)s2)nn1	30	solubility [4]: Insoluble
Nc1nnc(CCSc2ccc(NC(=O)Cc3ccccc3)nn2)s1	14000	
Nc1nnc(CCSc2nnc(NC(=O)Cc3ccccc3)s2)s1	1600	

Now from value to molecule, other results behind:

IC50 [1] [nM]	SMILES	other results
110	O=C(Cc1ccccn1)Nc1nnc(CCSc2nnc(NC(=O)Cc3ccccc3)s2)s1	
140	O=C(Cc1cccc(OC(F)(F)F)c1)Nc1nnc(CCSc2nnc(NC(=O)Cc3ccccc3)s2)s1	
100	O=C(Cc1ccccc1)Nc1nnc(CCSc2nnc(NC(=O)Cc3ccccn3)s2)s1	
50	O=C(Cc1ccccc1)Nc1nnc(CCSc2nnc(NC(=O)Cc3ccccc3)s2)s1	Stabilty [5]: 87%
200	CN(C)c1ccc(CC(=O)Nc2nnc(CCSc3nnc(NC(=O)Cc4ccccc4)s3)s2)cc1	
> 100000	O=C(Cc1ccccc1)Nc1nnc(CSCc2nnc(NC(=O)Cc3ccccc3)s2)s1	IC50 [3]: > 20000 nM
